Laboratory results reported in patent US20230009608A1, “GRK2 INHIBITORS AND USES THEREOF” (Cygnal Therapeutics, Inc., priority 2020, published 2023).

Assays:
GRK2 = target: T1, GRK2 (Homo sapiens, UniProt P25098); assay: ADPGlo GRK2 Inhibition Assay (Example 8); assay type: biochemical; details: Enzyme Assay A, ADPGlo (Example 8); read-out: A: Enzymatic GRK2: IC50 (nM) (Example 8)
T1 construct: purchased SignalChem A14-10G
T1 sequence (P25098 1-689): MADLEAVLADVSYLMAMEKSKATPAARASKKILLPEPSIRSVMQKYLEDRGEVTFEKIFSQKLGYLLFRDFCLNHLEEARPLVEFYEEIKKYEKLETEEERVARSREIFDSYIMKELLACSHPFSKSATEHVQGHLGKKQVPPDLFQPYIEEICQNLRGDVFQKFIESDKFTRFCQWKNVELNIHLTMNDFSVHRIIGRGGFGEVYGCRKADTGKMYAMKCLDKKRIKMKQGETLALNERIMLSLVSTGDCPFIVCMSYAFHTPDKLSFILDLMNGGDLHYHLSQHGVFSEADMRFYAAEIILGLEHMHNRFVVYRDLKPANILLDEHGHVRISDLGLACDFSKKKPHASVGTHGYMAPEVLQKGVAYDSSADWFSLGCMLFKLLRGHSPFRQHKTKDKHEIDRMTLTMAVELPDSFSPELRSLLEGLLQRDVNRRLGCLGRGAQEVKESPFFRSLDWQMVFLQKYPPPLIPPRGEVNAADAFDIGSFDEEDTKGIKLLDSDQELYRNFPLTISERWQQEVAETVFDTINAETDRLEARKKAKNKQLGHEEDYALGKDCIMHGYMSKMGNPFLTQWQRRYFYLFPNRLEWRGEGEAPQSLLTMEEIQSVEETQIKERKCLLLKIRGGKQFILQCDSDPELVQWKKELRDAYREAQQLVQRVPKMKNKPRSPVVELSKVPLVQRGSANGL
Outline: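 GRK2 (15 nM 2× enzyme solution) was preincubated 15 min with compound, then reacted 180 min at room temperature with 2× mix of 20 μM ATP plus GRKtide in HEPES pH 7.5, MgCl2, Tween-20, DTT. ADP was detected by ADP-Glo luminescence. Percent inhibition was normalised to enzyme and no-enzyme controls, with dose-response curves from threefold dilutions starting at 100 μM.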

[1] = test system: PAXF1657 control empty vector cell line; assay: 7-day proliferation assay, PAXF1657 control empty vector cell line (Example 9); assay type: cell-based; details: 168 h; Cell Line: PAXF1657 empty vector (EV) cell line; 7-day; read-out: C: 7-day proliferation assay: IC50 GeoMean
Outline: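 500 cells/well, RPMI1640 + 10% H.I. FBS, adhered overnight at 37° C. Compound 10-pt dilution, 30 μM-0.0002 μM final, 0.3% DMSO. 3 d, media + compound replaced, further 4 d. Viability by CellTiter-Glo; untreated plates read at time of dosing.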

| Compound | IC50 (GRK2) | IC50 [1] |
| --- | --- | --- |
| Cn1c(CNc2cccc(C(=O)NC3(c4ccccc4)CC3)c2)nnc1-c1ccncn1 | 34 nM | > 10000 nM |
| Cn1ncc(Br)c1CNC(=O)c1cccc(NCc2nnc(-c3ccncn3)n2C)c1 | 22 nM | > 10000 nM |
| Cn1c(CNc2cccc(C(=O)NCc3cccc(OCC(F)F)c3)c2)nnc1-c1ccncn1 | 43 nM | > 10000 nM |
| Cn1c(CNc2cccc(C(=O)NCc3cccc4c3OCCO4)c2)nnc1-c1ccncn1 | 15 nM | 2070 nM |
| COc1ccccc1[C@H](C)NC(=O)c1cccc(NCc2nnc(-c3ccncn3)n2C)c1 | 94 nM | > 10000 nM |
| CC(NC(=O)c1cccc(NCc2nnc(-c3ccncn3)n2C)c1)c1ccsc1 (stereo not drawn) | 4.9 nM | > 10000 nM |
| Cn1c(CNc2cccc(C(=O)NCc3c(F)cccc3-n3cccn3)c2)nnc1-c1ccncn1 | 24 nM | > 10000 nM |
| COC[C@H](NC(=O)c1cccc(NCc2nnc(-c3ccncn3)n2C)c1)c1ccccn1 | 54 nM | > 10000 nM |
| Cn1c(CNc2cccc(C(=O)NCc3ccccc3CN3CCCC3=O)c2)nnc1-c1ccncn1 | 49 nM | > 10000 nM |
| C[C@H](NC(=O)c1cccc(NCc2nnc(-c3ccncn3)n2C)c1)c1cncs1 | 410 nM | > 10000 nM |
| Cn1c(CNc2cccc(C(=O)N[C@H]3CCOc4c(F)cccc43)c2)nnc1-c1ccncn1 | 11 nM | 1230 nM |
| Cn1c(CNc2cccc(C(=O)NCc3cccc(C(F)F)c3)c2)nnc1-c1ccncn1 | 22 nM | > 10000 nM |
| Cn1c(CNc2cccc(C(=O)NCc3ccccc3)c2)nnc1-c1ccncn1 | 20 nM | > 10000 nM |
| Cn1c(CNc2cccc(C(=O)NCc3ccc(F)cc3)c2)nnc1-c1ccncn1 | 19 nM | 2160 nM |
| Cc1ccncc1CNC(=O)c1cccc(NCc2nnc(-c3ccncn3)n2C)c1 | 13 nM | 557 nM |
| COc1ccnc(CNC(=O)c2cccc(NCc3nnc(-c4ccncn4)n3C)c2)c1F | 200 nM | > 10000 nM |
| Cn1c(CNc2cccc(C(=O)NCc3cccc(C#N)c3F)c2)nnc1-c1ccncn1 | 30 nM | > 10000 nM |
| CC(NC(=O)c1cccc(NCc2nnc(-c3ccncn3)n2C)c1)c1ncnn1C (stereo not drawn) | 230 nM | > 10000 nM |
| Cc1cccnc1C(C)(C)NC(=O)c1cccc(NCc2nnc(-c3ccncn3)n2C)c1 | 630 nM | > 10000 nM |
| COc1c(C)cccc1CNC(=O)c1cccc(NCc2nnc(-c3ccncn3)n2C)c1 | 29 nM | 2060 nM |
| COc1cccnc1CNC(=O)c1cccc(NCc2nnc(-c3ccncn3)n2C)c1 | 290 nM | > 10000 nM |
| CC(NC(=O)c1cccc(NCc2nnc(-c3ccncn3)n2C)c1)c1ccncc1F (stereo not drawn) | 15 nM | 103 nM |
| COc1ncccc1CNC(=O)c1cccc(NCc2nnc(-c3ccncn3)n2C)c1 | 70 nM | > 10000 nM |
| Cc1ccncc1C(C)NC(=O)c1cccc(NCc2nnc(-c3ccncn3)n2C)c1 (stereo not drawn) | 50 nM | 537 nM |
| CCCC(NC(=O)c1cccc(NCc2nnc(-c3ccncn3)n2C)c1)c1ccccn1 (stereo not drawn) | 67 nM | 1220 nM |
| Cn1c(CNc2cccc(C(=O)NCc3ncnn3-c3ccccc3)c2)nnc1-c1ccncn1 | 59 nM | > 10000 nM |
| Cn1c(CNc2cccc(C(=O)NC(CCO)c3cccc(F)c3)c2)nnc1-c1ccncn1 (stereo not drawn) | 37 nM | > 10000 nM |

| Compound | IC50 (GRK2) | IC50 [1] |
| --- | --- | --- |
| COCC(NC(=O)c1cccc(NCc2nnc(-c3ccncn3)n2C)c1)c1ccc(F)c(F)c1 (stereo not drawn) | 46 nM | 280 nM |
| Cn1c(CNc2cccc(C(=O)NC3(c4cccnc4)CC3)c2)nnc1-c1ccncn1 | 200 nM | 583 nM |
| C[C@H](NC(=O)c1cccc(NCc2nnc(-c3ccncn3)n2C)c1)c1ccncc1 | 45 nM | 771 nM |
| Cn1c(CNc2cccc(C(=O)NC3COc4cccc(F)c43)c2)nnc1-c1ccncn1 (stereo not drawn) | 12 nM | > 10000 nM |
| Cc1cccc2c1OCC[C@@H]2NC(=O)c1cccc(NCc2nnc(-c3ccncn3)n2C)c1 | 15 nM | > 10000 nM |
| Cn1c(CNc2cccc(C(=O)C[C@H]3CCCc4cccnc43)c2)nnc1-c1ccncn1 | 20 nM | 224 nM |
| Cc1csc(C2(NC(=O)c3cccc(NCc4nnc(-c5ccncn5)n4C)c3)CCC2)n1 | 140 nM | 445 nM |
| Cn1c(CNc2cccc(C(=O)NC3(c4ccncn4)CC3)c2)nnc1-c1ccncn1 | 100 nM | 726 nM |
| CC(C)C(NC(=O)c1cccc(NCc2nnc(-c3ccncn3)n2C)c1)c1ccncc1 (stereo not drawn) | 32 nM | 1170 nM |
| Cn1c(CNc2cccc(C(=O)NCc3ncccc3C(F)(F)F)c2)nnc1-c1ccncn1 | 17 nM | > 10000 nM |
| C[C@H](NC(=O)c1cccc(NCc2nnc(-c3ccncn3)n2C)c1)C1NCCS1 (stereo partly drawn) | 150 nM | 172 nM |
| CC(NC(=O)c1cccc(NCc2nnc(-c3ccncn3)n2C)c1)c1ncccc1Br (stereo not drawn) | 9.4 nM | > 10000 nM |
| CCn1cnnc1CNC(=O)c1cccc(NCc2nnc(-c3ccncn3)n2C)c1 | 72 nM | > 10000 nM |
| COc1cccc(F)c1C(C)NC(=O)c1cccc(NCc2nnc(-c3ccncn3)n2C)c1 (stereo not drawn) | 27 nM | > 10000 nM |
| COC[C@H](NC(=O)c1cccc(NCc2nnc(-c3ccncn3)n2C)c1)c1cccnc1 | 46 nM | 6110 nM |
| Cn1c(CNc2cccc(C(=O)NC(c3ccncc3)C3CCC3)c2)nnc1-c1ccncn1 (stereo not drawn) | 22 nM | 136 nM |
| COc1cccc2c1CCC2NC(=O)c1cccc(NCc2nnc(-c3ccncn3)n2C)c1 (stereo not drawn) | 15 nM | 543 nM |
| Cn1c(CNc2cccc(C(=O)NCc3ccc(C[S+](C)[O-])cc3)c2)nnc1-c1ccncn1 (stereo not drawn) | 170 nM | > 10000 nM |
| CC(NC(=O)c1cccc(NCc2nnc(-c3ccncn3)n2C)c1)c1ccc2c(c1)CC(=O)N2C (stereo not drawn) | 21 nM | 158 nM |
| Cn1c(CNc2cccc(C(=O)NC3CCOc4ccccc43)c2)nnc1-c1ccncn1 (stereo not drawn) | 22 nM | 563 nM |
| Cn1c(CNc2cccc(C(=O)NC(CO)c3cccc(C(F)(F)F)c3)c2)nnc1-c1ccncn1 (stereo not drawn) | 34 nM | > 10000 nM |
| Cn1c(CNc2cccc(C(=O)NCc3nccc(Cl)c3F)c2)nnc1-c1ccncn1 | 220 nM | < 39 nM |
| Cn1cc(C(NC(=O)c2cccc(NCc3nnc(-c4ccncn4)n3C)c2)c2ccccc2)cn1 (stereo not drawn) | 41 nM | 66.4 nM |
| O=C(NCc1nccn1C(F)F)c1cccc(NCc2nnc(-c3ccncc3)[nH]2)c1 | 14 nM | 2880 nM |
| Cc1ccnc(CNC(=O)c2cccc(NCc3nnc(-c4ccncc4)[nH]3)c2)n1 | 15 nM | > 10000 nM |
| CC(C)n1nccc1CNC(=O)c1cccc(NCc2nnc(-c3ccncc3)[nH]2)c1 | 20 nM | > 10000 nM |
| O=C(NCc1cn[nH]c1C(F)F)c1cccc(NCc2nnc(-c3ccncc3)[nH]2)c1 | 19 nM | > 10000 nM |
